We go through four molecules from patent US20230172912A1, “COMPOUNDS FOR TREATING PNEUMONIA, SEPSIS, AND CORONAVIRUS INFECTION” (HEIDELBERG IMMUNOTHERAPEUTICS GMBH, priority 2020, published 2023).

Several values for one entry are separate records, joined by “and”; a condition that tells them apart may be missing. Equal values may be shown once. Read-outs that look alike come from different tables or passages of the source.

Data set [1] is described as follows: Safety and clinical laboratory parameters during maraviroc treatment of severe COVID-19. It counts as in vivo, human. As to the method: (§1) Clinical laboratory parameters were monitored daily. If patients gave voluntary consent, additional blood for cytokine and chemokine profiling in a research context was obtained and stored at -80° C. until use in the multiplex analysis (Bio-Plex Pro Human Cytokine 48-Plex Screening Panel plus ICAM and VCAM, Biorad, Munich, Germany) as described previously (Halama N, Michel S, Kloor M, et al., Cancer Res 2011;71:5670-7). Median protein concentrations per patient were compared in two groups: before and five or more days after the first day of maraviroc treatment.
Monitoring of clinical laboratory parameters also included, among others, serum levels of creatinine for kidney function, white blood count, lymphocyte count, and interleukin 6 (IL-6) as markers of inflammation and infection.

A further data set relates to SARS-CoV-2 pneumonia. Description: Time course of clinical inflammation parameters (CRP, transferrin saturation, IL-6) in serum of COVID-19 pneumonia patients. Format: in vivo, human. The conditions noted are these: COVID-19 pneumonia patients on standard therapy (piperacillin/tazobactam, caspofungin, hydroxychloroquine), FIG. 1. The method, then:
Patients with diagnosed SARS-CoV-2 pneumonia received standard therapy with piperacillin/tazobactam, caspofungin, and hydroxychloroquine; where deemed clinically necessary, additionally Maraviroc, a CCR5 inhibitor, was administered as indicated in FIG. 1.
Patient characteristics were as follows: • Patient A (FIG. 1A): person, no relevant previous disease; • Patient B (FIG. 1B): person; • Patient C (FIG. 1C): person, no relevant previous disease; • Patient D (FIG. 1 D): person, state after chemotherapy for Burkitt lymphoma; under artificial respiration; • Patient E (FIG. 1E): person; • Patient F (FIG. 1 F): person; • Patient G (FIG. 1G): person, under artificial respiration; • Patient H (FIG. 1 H):person; • Patient I (FIG. 1 I): person; • Patient K (FIG. 1 K): person

Data set [2] relates to severe COVID-19 (SARS-CoV-2 infection). Format: in vivo.
Data set [3] concerns serum cytokines and chemokines (IL-6, MIP-1b, IP-10, M-CSF). Description: Clinical laboratory IL-6 and research serum cytokine and chemokine multiplex analysis before and after maraviroc. Format: in vivo, human. The method, then:
as §1
For research cytokine analyses, cytokines which were undetectable in more than 3 samples were excluded. Correction for batch effects from three experiments was performed using the Python packagepycombat (version 0.14), and was validated by analyzing the mixture of samples within UMAP embeddings (McInnes L, Healy J, Melville J. UMAP: Uniform Manifold Approximation and Projection for Dimension Reduction. arXiv 2018). Wilcoxon signed-rank tests were used when comparing cytokine concentrations between groups. Resulting p-values were adjusted for multiple hypothesis testing according to the Benjamini and Hochberg method (Benjamini Y, Hochberg Y., J R Stat Soc B 1995;57:289-300). Kaplan-Meier estimator of survival was employed to visualize cumulative clinical improvement. Hazard ratio and the logrank test were used to compare improvement between patients in different groups using the R packages survival, survminer, and cmprsk. Stated percentages and quartiles include rounded numbers. Statistical analyses were carried out using R-3.5.3, Python-3.6.4, Excel (Microsoft), and SigmaPlot (Systat Software, Inc).

The subject of a further data set is interleukin 6 (IL-6). The settings on record: 5 of 6 patients (range 83 to 8175 pg per milliliter), three days after administration; cited from earlier work.
In a further data set the test system is SARS-CoV-2. The conditions noted are these: severe COVID-19 cases; preprint; cited from earlier work.
[4] abbreviates: Patient 43, day 5, decreased on days 6 and 7.
The mark [5] stands for this setting: serum, subset of 14 patients, p<0.05, not significant after adjustment for multiple testing.
Where [6] appears, read: patients who received at least one dose before or concomitant to maraviroc.

For the molecule `Cc1nnc(C(C)C)n1[C@@H]1C[C@H]2CC[C@@H](C1)N2CC[C@H](NC(=O)C1CCC(F)(F)CC1)c1ccccc1` [maraviroc, 4,4-difluoro—N—[(1S)-3-[(1S,5R)-3-(3-methyl-5-propan-2-yl-1,2,4-triazol-4-yl)-8-azabicyclo[3.2.1]octan-8-yl]-1-phenylpropyl]cyclohexane-1-carboxamide], the novel adverse events entry in data set [1] (47 severe COVID-19 patients) is recorded as “no novel AEs have been observed”. For the same molecule, in data set [1] (setting [4]), the “increase in ALT from baseline” value is listed as 2.8 fold. Further, the “increase in AST from baseline” value in data set [1] (setting [4]) stood at 3.6 fold. For the same molecule, the “adverse event grade (CTCAE v5.0)” value in data set [1] (Patient 43, liver function) was “grade 2, moderate liver function AE”. Moreover, the “other changes of clinical laboratory parameters” value in data set [1] (creatinine, white blood count, lymphocyte count, IL-6 among others, monitored daily) is given as “no other clinically significant changes were observed”. Further, the “increase of inflammation markers after administration” value in the data set with SARS-CoV-2 pneumonia was “reverted in a very fast manner in all cases”. Further, the “median time to a substantial clinical improvement from baseline” value in data set [2] (IQR 7-16 days) was determined as 9 days. The “median time to improvement on the ordinal scale from baseline” value in data set [2] (all patients who improved, IQR 5-13 days) came out at 8 days; in data set [2] (invasive ventilation at baseline, IQR 5-19 days), 14 days; in data set [2] (not receiving invasive ventilation at baseline, IQR 5-11 days) it was 7 days. For the same molecule, the “patients with improvement on the 6-stage ordinal scale” value in data set [2] (breathing ambient air at baseline, 2 of 2 patients) is listed as 100%; in data set [2] (invasive ventilation at baseline, 8 of 11 patients) it was 72.7%; in data set [2] (non-invasive ventilation at baseline, 7 of 11 patients) it was 63.6%; in data set [2] (overall cohort, 37 of 47 patients, baseline until last day of data acquisition) it was 78.7%; in data set [2] (supplemental low-flow oxygen at baseline, 20 of 23 patients) it was 87%. For the same molecule, the “patients worsened (died), mortality” value in data set [2] (invasive mechanical ventilation at baseline, 1 of 11 patients, 40 day observational period) is 9.1% and 9%. Further, in data set [2] (invasive ventilation at baseline, 2 of 11 patients), the “patients remained under invasive ventilation” value worked out at 18.2%. Besides, the “patients showing an improvement during the observational period” value in data set [2] (maraviroc patients not treated with HCQ, 14 of 18) turned out to be 77.9%; in data set [2] (maraviroc patients treated with at least one dose of HCQ, 22 of 29), 75.9%. Besides, the “median time to improvement” value turned out to be 7 days in data set [2] (maraviroc patients not treated with HCQ, IQR 3-11 days) and 6 days in data set [2] (maraviroc patients treated with at least one dose of HCQ, IQR 3-13 days). In addition, the “patients worsened from non-invasive to invasive ventilation” value in data set [2] (one patient of 47, after or during maraviroc treatment) was found to be 2.1%. Also, the “patients with no change on the 6-stage ordinal scale” value in data set [2] (overall cohort, 4 of 47 patients) worked out at 8.5%. Also, the “deaths (overall mortality)” value in data set [2] (overall cohort, 5 of 47 patients, 40 day time frame, median follow-up 12 days) came out at 11%. For the same molecule, in data set [2] (overall cohort, 6 of 47 patients, including deaths), the “patients worsened on the 6-stage ordinal scale” value turned out to be 12.8%. Further, the patients discharged in data set [2] (overall cohort, 29 of 47 patients) turned out to be 61.7%. Also, the “patients with substantial clinical improvement (decrease of two stages or more or discharge)” value in data set [2] (overall cohort, 34 of 47 patients, day of final data acquisition) turned out to be 72%. Besides, the “clinical outcome of coronavirus infection / severe COVID-19 cases” value in data set [2] (overall statement) is on record as “remarkably positive clinical outcomes”. For the same molecule, the “patients with no change” value in data set [2] (without invasive mechanical ventilation at baseline, 2 of 36 patients) amounted to 5.6%. In addition, the patients worsened in data set [2] (without invasive mechanical ventilation at baseline, 5 of 36 patients) worked out at 13.9%. This molecule showed a patients improved in data set [2] (without invasive mechanical ventilation at baseline, 29 of 36 patients) of 80.6%. The “change in concentration of MIP-1b (CCL4) from before to after treatment” value in data set [3] (serum, subset of 14 patients, after = 5 days or more after baseline, FIG. 5) is given as “significant increase”. Further, the “change in IP-10 (CXCL10) from before to after treatment” value in data set [3] (setting [5]) is listed as “decrease”. Besides, the “change in M-CSF (CSF1) from before to after treatment” value in data set [3] (setting [5]) was “decrease”. The “median IL-6 level” value in data set [3] (three days after administration, decrease from baseline median 74.7 pg per milliliter, p-value=0.002) amounted to 37.7 pg per milliliter.

Consider `C[C@]12C=CC(=O)C=C1CC[C@@H]1[C@@H]2[C@@H](O)C[C@@]2(C)[C@H]1CC[C@]2(O)C(=O)CO` [prednisolone], for which the “number of patients who died” value in data set [2] (in vivo) came to 1. Also, in data set [2] (setting [6]), the “number of patients improved on the ordinal scale from baseline” value was 3 of 7, the “number of patients with no change on the ordinal scale from baseline” value came to 2 and the “number of patients worsened on the ordinal scale from baseline” value is 2.

As for “tocilizumab: concomitant investigational treatment”, in data set [2] (setting [6]), the “number of patients who died” value stood at 3, the “number of patients with no change on the ordinal scale from baseline” value is recorded as 1 of 4 and the “number of patients worsened on the ordinal scale from baseline” value is 3.

B1: leronlimab: humanized IgG4 monoclonal antibody that blocks the chemokine receptor CCR5 on immune cells (antibody, chains of the INN, looked up, V domains shown)
VH: EVQLVESGGGLVKPGGSLRLSCAASGYTFSNYWIGWVRQAPGKGLEWIGDIYPGGNYIRNNEKFKDKTTLSADTSKNTAYLQMNSLKTEDTAVYYCGSSFGSNYVFAWFTYWGQGTLVTVSS
VL: DIVMTQSPLSLPVTPGEPASISCRSSQRLLSSYGHTYLHWYLQKPGQSPQLLIYEVSNRFSGVPDRFSGSGSGTDFTLKISRVEAEDVGVYYCSQSTHVPLTFGQGTKVEIK
For the molecule B1, in the data set on interleukin 6 (IL-6), the “change of high IL-6 levels” value was “decreased substantially”. In the data set on SARS-CoV-2, the “change in plasma viral load” value is recorded as “decrease”.
